Measured values: ChEMBL document CHEMBL5729105, “CD73 inhibitors” (2022)

Target: 5'-nucleotidase (Homo sapiens, UniProt P21589)
Assay: Biochemical Assay: Assay Reaction ConditionsAssay Volume: 70 μlReaction Volume: 50 μlCD73: 0.3208 nMAMP: 15 μMAssay Buffer: 25 mM Tris-HCL, pH 7.4, 0.01% Brij-35, 0.01% BSA, 5 mM MgCl2Assay Procedure:Used 384 clear plate.Made dose titration of testing compounds in assay buffer, 10 points ½ log titrations in duplicates starting at 100 μM.Added 25 μl of CD73 to each well for a final concentration of 320 pM.Incubated at RT for 15 min.Added 25 μl of AMP to each well for a final concentration of 15 μM.Incubated at RT for 10 min.Added 10 μl of Malachite Green Reagent A, incubate at RT for 10 min.Added 10 of Malachite Green Reagent B, incubate at RT for 45 min.Read the Absorbance on Envision plate reader using excitation filter: Cy5 620 nM.The ability of the compounds disclosed herein to inhibit CD73 activity was quantified and the respective IC50 values were determined.

Chain of 5'-nucleotidase (P21589 whole entry): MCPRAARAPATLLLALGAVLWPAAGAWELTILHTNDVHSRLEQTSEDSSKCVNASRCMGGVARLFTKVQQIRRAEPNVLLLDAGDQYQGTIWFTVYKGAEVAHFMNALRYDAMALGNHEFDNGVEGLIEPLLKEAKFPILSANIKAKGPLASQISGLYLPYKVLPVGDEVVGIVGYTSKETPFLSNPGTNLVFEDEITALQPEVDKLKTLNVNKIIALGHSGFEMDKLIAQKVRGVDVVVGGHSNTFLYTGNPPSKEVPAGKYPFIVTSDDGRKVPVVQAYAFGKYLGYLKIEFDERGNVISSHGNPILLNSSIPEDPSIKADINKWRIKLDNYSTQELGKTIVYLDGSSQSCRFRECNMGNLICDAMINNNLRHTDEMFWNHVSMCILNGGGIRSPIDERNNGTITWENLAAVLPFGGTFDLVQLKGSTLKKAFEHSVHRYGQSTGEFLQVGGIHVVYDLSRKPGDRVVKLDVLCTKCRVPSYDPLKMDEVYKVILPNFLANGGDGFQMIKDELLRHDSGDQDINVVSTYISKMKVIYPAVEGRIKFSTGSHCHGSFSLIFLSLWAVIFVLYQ

## O=P(O)(O)[C@H](CO)OC[C@H]1O[C@@H](n2ncc3c(NC4CCCC4)nc(Cl)nc32)[C@H](O)[C@@H]1O (single isomer, unassigned)
  IC50: < 0.1 µM
